{"source": "patent US20100047308A1", "about": "“Production methods of virus inactivated and cell-free body implant” (priority 2006, published 2010)", "test_system": "L-929 cells (fibroblasts)", "assay": "Cytotoxicity of graft exudates according to USP <87> (cell lysis, inhibition of cell growth)", "details": "24 hours, USP <87> qualitative method", "protocol": "The acellular dermal implants obtained after treatment with the solvent/detergent were powdered and mixed with 1 ml of distilled water for every 300 mg of the powder. To 4 g of the mixed sample was added 20 ml of physiological saline, followed by extraction at 37° C. for 72 hours. Tests were conducted within 24 hours after the completion of the extraction. The extract was mixed at a volume ratio of 1:2 with a culture medium (MEM). L-929 cells (fibroblasts), which are usually used in inhibition tests because of their high susceptibility to chemicals, were plated at a density of 10^5 cells per ml before culturing. […] This experiment was repeated three times while cytotoxicity was evaluated according to the qualitative method of USP <87>.\nIn order to examine whether the solvent/detergent solution remaining in the acellular dermal implants had toxic effects on cells of the patient, the exudates from the grafts were assayed for cytotoxicity.", "data": [{"smiles": "C[S+](C)[O-]", "note": "[Positive Control, DMSO]", "values": [{"measurement": "Exudate Grades (cytotoxicity)", "result": 4}]}]}
